From the NIST ThermoML archive (doi:10.1016/j.fluid.2013.06.041)
± gives the expanded uncertainty stated by the source.

Experiments:
[1] = 101.33 kPa, Liquid, Vibrating tube method
[2] = molar heat capacity at constant pressure; settings: 101.33 kPa, Liquid, Small sample (50 mg) DSC
[3] = xn = mol fraction of the nth substance listed; settings: 101 kPa, Liquid, Small sample (50 mg) DSC

OCCO [1,2-ethanediol]
Settings	mass density, 283.15 K [kg/m3]	mass density, 293.15 K [kg/m3]	mass density, 303.15 K [kg/m3]	mass density, 313.15 K [kg/m3]	molar heat capacity at constant pressure, 283.15 K [J/K/mol]	molar heat capacity at constant pressure, 293.15 K [J/K/mol]	molar heat capacity at constant pressure, 298.15 K [J/K/mol]	molar heat capacity at constant pressure, 303.15 K [J/K/mol]	molar heat capacity at constant pressure, 313.15 K [J/K/mol]
[1]	1120.39 ± 0.22	1113.34 ± 0.22	1106.23 ± 0.21	1099.07 ± 0.21	–	–	–	–	–
[2]	–	–	–	–	145.38 ± 6.2	148.53 ± 6.3	150.22 ± 6.4	151.96 ± 6.4	155.49 ± 6.6

OCCO [1,2-ethanediol] + O
excess molar heat capacity [J/K/mol], [3]
Settings	283.15 K	293.15 K	298.15 K	303.15 K	313.15 K
x1 = 0.00991	0.43 ± 0.43	0.3 ± 0.43	0.26 ± 0.43	0.26 ± 0.43	0.37 ± 0.43
x1 = 0.02619	0.87 ± 0.43	0.79 ± 0.43	0.76 ± 0.43	0.75 ± 0.43	0.74 ± 0.43
x1 = 0.04637	1.03 ± 0.43	1.25 ± 0.43	1.33 ± 0.43	1.39 ± 0.43	1.5 ± 0.43
x1 = 0.07516	1.32 ± 0.43	1.72 ± 0.43	1.85 ± 0.43	1.96 ± 0.43	2.17 ± 0.44
x1 = 0.09514	–	–	1.99 ± 0.43	2.2 ± 0.44	2.5 ± 0.44
x1 = 0.1016	1.26 ± 0.43	–	–	–	–
x1 = 0.1245	1.16 ± 0.43	1.91 ± 0.43	2.17 ± 0.44	2.38 ± 0.44	2.76 ± 0.44
x1 = 0.1491	0.94 ± 0.43	1.76 ± 0.43	2.08 ± 0.43	2.35 ± 0.44	2.82 ± 0.44
x1 = 0.1731	0.76 ± 0.43	1.68 ± 0.43	2.01 ± 0.43	2.29 ± 0.44	–
x1 = 0.2203	–	–	–	–	2.62 ± 0.44
x1 = 0.2903	–	0.61 ± 0.43	1.14 ± 0.43	1.6 ± 0.43	2.42 ± 0.44
x1 = 0.4076	–	0.05 ± 0.42	0.54 ± 0.43	0.98 ± 0.43	1.82 ± 0.43
x1 = 0.4641	–	–	0.35 ± 0.43	0.78 ± 0.43	1.58 ± 0.43
x1 = 0.6066	–	–	0.02	0.035	0.96 ± 0.43
x1 = 0.6959	–	–	–	0.15 ± 0.43	0.63 ± 0.43
x1 = 0.804	–	–	–	–	0.18 ± 0.43

CCCCC(O)CO (configuration not stated) [1,2-hexanediol]
Settings	mass density, 283.15 K [kg/m3]	mass density, 293.15 K [kg/m3]	mass density, 298.15 K [kg/m3]	mass density, 303.15 K [kg/m3]	mass density, 313.15 K [kg/m3]	molar heat capacity at constant pressure, 283.15 K [J/K/mol]	molar heat capacity at constant pressure, 293.15 K [J/K/mol]	molar heat capacity at constant pressure, 298.15 K [J/K/mol]	molar heat capacity at constant pressure, 303.15 K [J/K/mol]	molar heat capacity at constant pressure, 313.15 K [J/K/mol]
[1]	958.85 ± 0.79	951.73 ± 0.78	948.1 ± 0.78	944.44 ± 0.77	937.06 ± 0.76	–	–	–	–	–
[2]	–	–	–	–	–	277.11 ± 12	287.76 ± 12	293.1 ± 12	298.44 ± 13	309.15 ± 13

CCCCC(O)CO (configuration not stated) [1,2-hexanediol] + O
excess molar heat capacity [J/K/mol], [3]
Settings	283.15 K	293.15 K	298.15 K	303.15 K	313.15 K
x1 = 0.04991	–	0.35 ± 0.43	–	1.74 ± 0.43	2.85 ± 0.44
x1 = 0.09952	–	–	0.87 ± 0.43	1.95 ± 0.43	3.92 ± 0.45
x1 = 0.1989	–	0.68 ± 0.43	1.97 ± 0.43	3.16 ± 0.44	5.28 ± 0.45
x1 = 0.2988	–	1.31 ± 0.43	2.52 ± 0.44	3.76 ± 0.44	5.95 ± 0.46
x1 = 0.4015	–	0.89 ± 0.43	2.19 ± 0.44	3.35 ± 0.44	5.35 ± 0.46
x1 = 0.4841	–	1.13 ± 0.43	2.22 ± 0.44	3.15 ± 0.44	4.97 ± 0.45
x1 = 0.5535	–	1.45 ± 0.43	2.33 ± 0.44	3.16 ± 0.44	–
x1 = 0.6972	–	0.9 ± 0.43	1.63 ± 0.43	2.27 ± 0.44	3.48 ± 0.44
x1 = 0.7927	–	0.92 ± 0.43	1.26 ± 0.43	1.52 ± 0.43	2.27 ± 0.44
x1 = 0.8822	–	0.82 ± 0.43	0.94 ± 0.43	0.89 ± 0.43	1.65 ± 0.43
x1 = 0.9437	0.04	0.68 ± 0.43	0.47 ± 0.43	0.22 ± 0.43	0.62 ± 0.43

CC(O)CO (configuration not stated) [1,2-propanediol]
Settings	mass density, 283.15 K [kg/m3]	mass density, 293.15 K [kg/m3]	mass density, 298.15 K [kg/m3]	mass density, 303.15 K [kg/m3]	mass density, 313.15 K [kg/m3]	molar heat capacity at constant pressure, 283.15 K [J/K/mol]	molar heat capacity at constant pressure, 293.15 K [J/K/mol]	molar heat capacity at constant pressure, 298.15 K [J/K/mol]	molar heat capacity at constant pressure, 303.15 K [J/K/mol]	molar heat capacity at constant pressure, 313.15 K [J/K/mol]
[1]	1043.89 ± 0.22	1036.58 ± 0.22	1032.86 ± 0.22	1029.1 ± 0.22	1021.48 ± 0.22	–	–	–	–	–
[2]	–	–	–	–	–	183.26 ± 7.8	188.62 ± 8	191.29 ± 8.1	193.95 ± 8.2	199.25 ± 8.5

OCCCCO [1,4-butanediol]
Settings	mass density, 283.15 K [kg/m3]	mass density, 293.15 K [kg/m3]	mass density, 298.15 K [kg/m3]	mass density, 303.15 K [kg/m3]	mass density, 313.15 K [kg/m3]	molar heat capacity at constant pressure, 283.15 K [J/K/mol]	molar heat capacity at constant pressure, 293.15 K [J/K/mol]	molar heat capacity at constant pressure, 298.15 K [J/K/mol]	molar heat capacity at constant pressure, 303.15 K [J/K/mol]	molar heat capacity at constant pressure, 313.15 K [J/K/mol]
[1]	1022.21 ± 0.3	1016.11 ± 0.3	1013.06 ± 0.3	1009.99 ± 0.29	1003.85 ± 0.29	–	–	–	–	–
[2]	–	–	–	–	–	195.51 ± 8.3	200.85 ± 8.5	203.73 ± 8.6	206.71 ± 8.8	212.96 ± 9

OCCCO [propan-1,3-diol]
Settings	mass density, 283.15 K [kg/m3]	mass density, 293.15 K [kg/m3]	mass density, 298.15 K [kg/m3]	mass density, 303.15 K [kg/m3]	mass density, 313.15 K [kg/m3]	molar heat capacity at constant pressure, 283.15 K [J/K/mol]	molar heat capacity at constant pressure, 293.15 K [J/K/mol]	molar heat capacity at constant pressure, 298.15 K [J/K/mol]	molar heat capacity at constant pressure, 303.15 K [J/K/mol]	molar heat capacity at constant pressure, 313.15 K [J/K/mol]
[1]	1059.14 ± 0.96	1052.85 ± 0.95	1049.68 ± 0.94	1046.51 ± 0.93	1040.12 ± 0.92	–	–	–	–	–
[2]	–	–	–	–	–	169.44 ± 7.2	174.37 ± 7.4	176.91 ± 7.5	179.52 ± 7.6	185.09 ± 7.9
